Test results reported in PMC6102592, “Synthesis of New Benzothiazole Acylhydrazones as Anticancer Agents” (Molecules : A Journal of Synthetic Chemistry and Natural …, 2018).

Tests used:
[1] = test system: DNA synthesis of C6 cells; experiment: DNA synthesis inhibition assay (BrdU cell proliferation); assay type: cell-based, Rat; settings: C6, IC50/4 to 4 × IC50, 24 h
Description: This immunostaining assay is related to detecting the attendance of BrdU into nuclear DNA instead of thymidine during S-phase of the cell cycle using specific anti-BrdU antibodies. Thus, this study was performed to evaluate inhibitory effects of compounds 4d, 4e, and 4h on proliferation of C6 cell lines. […] Figure 2 represents the DNA synthesis inhibitory effect of compounds 4d, 4e, and 4h on C6 cells.
The BrdU cell proliferation method was performed to analyse the effects of compounds 4d, 4e and 4h on proliferation of C6 cells. C6 cells were seeded into the 96-well plates at a density of 1 × 10^4 cells. […] At the end of the incubation period, BrdU solution was added and cells were reincubated for 2 h at 37 °C. Anti-BrdU-POD ([…]) was added and the mixture was incubated for 90 min. Microplates were washed with PBS for three times. After adding substrate solution, the mixture was incubated for 15 min. OD of the wells were determined at 492 nm.

[2] = test system: HT-29 (Human colorectal adenocarcinoma cell line); experiment: MTT cytotoxicity test, HT-29; assay type: cell-based
Description: (§1) MTT assay, depending on the capability of metabolically active cells that change the pale yellow MTT colour to a spectrophotometrically measured blue formazan salt, is one of the most favoured cytotoxicity tests. We assessed the antitumor potential of new benzothiazole-acylhydrazones on A549, C6, MCF-7, and HT-29 cell lines with various concentrations (1 mM, 0.316 mM, 0.1 mM, 0.0316 mM, 0.01 mM, 0.00316 mM, 0.001 mM, 0.000316 mM). In addition, the cytotoxic activities of compounds 4a–4j were evaluated against healthy NIH3T3 cells, owing to show the selectivity towards carcinogenic cells. The IC50 values of the compounds against cell lines are represented in Table 1.
(§2) Metabolic activity of viable cells was measured by MTT assay based on the reduction of 3-(4,5-dimethylthiazol-2-yl)-2,5-diphenyltetrazolium salt to a formazan product, which can be quantified spectrophotometrically to determine the percent of viable cells.
(§3) Anticancer activities of new benzothiazole acylhydrazones derivatives were evaluated against A549 C6, MCF-7 and HT-29 cell lines. The selectivity of their cytotoxic effects was evaluated on NIH/3T3 mouse embryonic fibroblast cells. NIH/3T3 cells were incubated in DMEM supplemented with fetal calf serum, penicillin (100 IU/mL), streptomycin ([…]) and 7.5% NaHCO3 at 37 °C in a humidified atmosphere of 95% air and 5% CO2. Carcinogenic cells were incubated in RPMI medium supplemented with fetal calf serum, penicillin (100 IU/mL), streptomycin ([…]) and 7.5% NaHCO3 at 37 °C in a humidified atmosphere of 95% air and 5% CO2. All cell lines were seeded at a density of 1 × 10^4 cells into the 96-well plates. After 24 h of incubating period, the culture mediums were removed and test compounds were added at concentrations of 0.000316–1 mM. After a 24 h incubation period, OD of samples were measured by a microplate reader (Biotek, Winooski, VT, USA) at 540 nm. Inhibition % at concentrations was determined using the formula below and IC50 values were calculated by nonlinear regression analysis using the SigmaPlot v.10 package program (Manufacturer, City, US State abbrev. if applicable, Country).

[3] = test system: NIH3T3 (Mouse embryo fibroblast cell line); experiment: MTT cytotoxicity test, healthy NIH3T3 cells; assay type: cell-based; settings: for IC50: MTT, 24 h incubation, healthy cells
Description: as §1, §2, §3

C6 cell line = experiment: Flow cytometric analysis (Annexin V-FITC/PI); assay type: cell-based, Rat; settings: for Q1 percentage of necrotic cells / Q2 percentage of late apoptotic cells / Q3 percentage of viable cells / Q4 percentage of early apoptotic cells / viability at 15 µM: 24 h; for percentages of apoptotic cells: C6, at IC50 concentrations, 24 h (sum of Q2 and Q4); for viability at 15 µM: Rattus norvegicus, read-out: Q3 percentage of viable cells
Excerpt: In the therapy of cancer, apoptosis, or programmed cell death, is one of the distinguished mechanisms of cytotoxic agents. It is an important approach to express the cell death pathway and most of the anticancer drugs induce apoptosis in tumor cells. Annexin V-FITC is a reagent that can detect and measure quantitate of apoptotic cells by flow cytometry. Staining cells with PI and Annexin V-FITC show the differences between live, apoptotic, dead, and late apoptotic or necrotic cells. Thus, this method provides evidence on the pathway of cell death.
Death pathway of the carcinogenic cell lines was detected by Annexin V-FITC Apoptosis Detection Kit (BD, Pharmingen, City, US State abbrev. if applicable, Country) as reported in the manufacturer’s instructions. […] After 24 h incubation period, cells were harvested by centrifugation at 1200 rpm for 5 min. at room temperature, rinsed with cold water twice and then suspended at 1 × 10^6 cells/mL concentration in Annexin V-FITC binding buffer. Propidium iodide ([…]) and annexin V-FITC ([…]) were added for staining the cells and the fluorescence measurements was performed using a flow cytometer. FCSExpress software (version, Manufacturer, City, US State abbrev. if applicable, Country) was used to display the percent of normal and apoptotic cells at different stages. […] The experiments were carried out in triplicate.

[4] = test system: A549 (Human lung adenocarcinoma epithelial cell line); experiment: MTT cytotoxicity test, A549; assay type: cell-based
Description: as §1, §2, §3

[5] = test system: MCF-7 (Human breast adenocarcinoma cell line); experiment: MTT cytotoxicity test, MCF-7; assay type: cell-based
Description: as §1, §2, §3

[6] = test system: C6 (Rat brain glioma cell line); experiment: MTT cytotoxicity test, C6; assay type: cell-based; settings: 24 h incubation
Description: as §1, §2, §3

[7] = Homo sapiens, HT-29, 24 h incubation
[8] = Homo sapiens, A549, 24 h incubation
[9] = Homo sapiens, MCF7, 24 h incubation

SMILES | melting point | IC50 [2, 7] | IC50 ([3]; Mus musculus, NIH3T3) | Q1 percentage of necrotic cells (C6 cell line; C6, IC50 (0.03 mM)) | Q2 percentage of late apoptotic cells (C6 cell line; C6, IC50 (0.03 mM)) | Q4 percentage of early apoptotic cells (C6 cell line; C6, IC50 (0.03 mM)) | percentages of apoptotic cells (C6 cell line) | IC50 [4, 8] | IC50 [5, 9] | IC50 ([6]; Rattus norvegicus, Glioma cell) | also measured
CC1CCN(c2ccc(C=NNC(=O)CSc3nc4cc(Cl)ccc4s3)cc2)CC1 [Compound 4d, 2-((5-Chlorobenzothiazol-2-yl)thio)-N’-(4-(4-methylpiperidin-1-yl)benzylidene)acetohydrazide] | – | 300 µM | > 1000 µM | 6.9% | 3.1% | 2.4% | 5.5% | > 1000 µM | 100 µM | 30 µM | DNA synthesis inhibitory activity compared with cisplatin [1]: higher inhibition potency than cisplatin at all concentrations; Q1 percentage of necrotic cells (C6 cell line; C6, 2 × IC50 (0.06 mM)): 4.5%; Q2 percentage of late apoptotic cells (C6 cell line; C6, 2 × IC50 (0.06 mM)): 7.1%; Q3 percentage of viable cells (C6 cell line; C6, 2 × IC50 (0.06 mM)): 74.5%; Q4 percentage of early apoptotic cells (C6 cell line; C6, 2 × IC50 (0.06 mM)): 13.9%; Q3 percentage of viable cells (C6 cell line; C6, IC50 (0.03 mM)): 87.6%; Q1 percentage of necrotic cells (C6 cell line; C6, IC50/2 (0.015 mM)): 16.4%; Q2 percentage of late apoptotic cells (C6 cell line; C6, IC50/2 (0.015 mM)): 12.3%; Q4 percentage of early apoptotic cells (C6 cell line; C6, IC50/2 (0.015 mM)): 0.1%; viability at 15 µM (C6 cell line; C6, IC50/2 (0.015 mM)): 71.2%
COc1ccc2sc(SCC(=O)NN=Cc3ccc(N4CCCC(C)C4)cc3)nc2c1 (stereo not shown) [Compound 4h, 2-((5-Methoxybenzo[d]thiazol-2-yl)thio)-N’-(4-(3-methylpiperidin-1-yl)benzylidene)acetohydrazide] | – | > 1000 µM | 100 µM | 8.6% | 7.4% | 4.6% | 12.0% | > 1000 µM | > 1000 µM | 30 µM | DNA synthesis inhibitory activity compared with cisplatin [1]: could not display the same ability as compounds 4d and 4e to inhibit DNA synthesis; Q1 percentage of necrotic cells (C6 cell line; C6, 2 × IC50 (0.06 mM)): 5.4%; Q2 percentage of late apoptotic cells (C6 cell line; C6, 2 × IC50 (0.06 mM)): 10.5%; Q3 percentage of viable cells (C6 cell line; C6, 2 × IC50 (0.06 mM)): 75.2%; Q4 percentage of early apoptotic cells (C6 cell line; C6, 2 × IC50 (0.06 mM)): 8.9%; Q3 percentage of viable cells (C6 cell line; C6, IC50 (0.03 mM)): 79.4%; Q1 percentage of necrotic cells (C6 cell line; C6, IC50/2 (0.015 mM)): 10.8%; Q2 percentage of late apoptotic cells (C6 cell line; C6, IC50/2 (0.015 mM)): 4.9%; Q4 percentage of early apoptotic cells (C6 cell line; C6, IC50/2 (0.015 mM)): 0.3%; viability at 15 µM (C6 cell line; C6, IC50/2 (0.015 mM)): 84.1%
O=C(CSc1nc2cc(Cl)ccc2s1)NN=Cc1ccc(N2CCCCC2)cc1 [Compound 4a, 2-((5-Chlorobenzothiazol-2-yl)thio)-N’-(4-(piperidin-1-yl)benzylidene)acetohydrazide] | 178 to 179 °C | 520 µM | 100 µM | – | – | – | – | > 1000 µM | 490 µM | 100 µM | –
COc1ccc(N2CCN(c3ccc(C=NNC(=O)CSc4nc5cc(Cl)ccc5s4)cc3)CC2)cc1 [Compound 4e, 2-((5-Chlorobenzothiazol-2-yl)thio)-N’-(4-(4-(4-methoxyphenyl)piperazin-1-yl)benzylidene)acetohydrazide] | – | > 1000 µM | 10 µM | 9.8% | 16.0% | 3.5% | 19.5% | 30 µM | 300 µM | 30 µM | DNA synthesis inhibitory activity compared with cisplatin [1]: higher antiproliferative effect than cisplatin at the concentrations of IC50/2, IC50, 2 × IC50, and 4 × IC50; selectivity index (SI) ([3]; NIH3T3 versus cancer cells): 0.33; Q1 percentage of necrotic cells (C6 cell line; C6, 2 × IC50 (0.06 mM)): 10.1%; Q2 percentage of late apoptotic cells (C6 cell line; C6, 2 × IC50 (0.06 mM)): 14.0%; Q3 percentage of viable cells (C6 cell line; C6, 2 × IC50 (0.06 mM)): 73.3%; Q4 percentage of early apoptotic cells (C6 cell line; C6, 2 × IC50 (0.06 mM)): 2.5%; Q3 percentage of viable cells (C6 cell line; C6, IC50 (0.03 mM)): 70.7%; Q1 percentage of necrotic cells (C6 cell line; C6, IC50/2 (0.015 mM)): 13.5%; Q2 percentage of late apoptotic cells (C6 cell line; C6, IC50/2 (0.015 mM)): 3.8%; Q4 percentage of early apoptotic cells (C6 cell line; C6, IC50/2 (0.015 mM)): 0%; viability at 15 µM (C6 cell line; C6, IC50/2 (0.015 mM)): 82.6%
N.N.[Cl][Pt][Cl] [Cisplatin, reference compound] | – | – | – | 3.5% | 18.3% | 2.6% | 20.9% | – | – | – | IC50 ([2]; 24 h incubation): 60 µM; IC50 [3]: > 1000 µM; IC50 ([4]; 24 h incubation): 60 µM; IC50 ([5]; 24 h incubation): 50 µM; IC50 [6]: 30 µM

Second part, led by results:

melting point | SMILES | IC50 [2, 7] | IC50 ([3]; Mus musculus, NIH3T3) | Q1 percentage of necrotic cells (C6 cell line; C6, IC50 (0.03 mM)) | Q2 percentage of late apoptotic cells (C6 cell line; C6, IC50 (0.03 mM)) | Q4 percentage of early apoptotic cells (C6 cell line; C6, IC50 (0.03 mM)) | percentages of apoptotic cells (C6 cell line) | IC50 [4, 8] | IC50 [5, 9] | IC50 ([6]; Rattus norvegicus, Glioma cell) | also measured
149 to 150 °C | COc1ccc2sc(SCC(=O)NN=Cc3ccc(N4CCC(C)CC4)cc3)nc2c1 [Compound 4i, 2-((5-Methoxybenzo[d]thiazol-2-yl)thio)-N’-(4-(4-methylpiperidin-1-yl)benzylidene)acetohydrazide] | 1000 µM | 30 µM | – | – | – | – | 490 µM | 300 µM | 100 µM | –
138 to 139 °C | COc1ccc2sc(SCC(=O)NN=Cc3ccc(N4CCCCC4)cc3)nc2c1 [Compound 4f, 2-((5-Methoxybenzothiazol-2-yl)thio)-N’-(4-(piperidin-1-yl)benzylidene)acetohydrazide] | > 1000 µM | 30 µM | – | – | – | – | > 1000 µM | > 1000 µM | > 1000 µM | –
149 to 150 °C | CC1CCCN(c2ccc(C=NNC(=O)CSc3nc4cc(Cl)ccc4s3)cc2)C1 (stereo not shown) [Compound 4c, 2-((5-Chlorobenzothiazol-2-yl)thio)-N’-(4-(3-methylpiperidin-1-yl)benzylidene)acetohydrazide] | 300 µM | 30 µM | – | – | – | – | 520 µM | 100 µM | 100 µM | –
138 to 139 °C | COc1ccc2sc(SCC(=O)NN=Cc3ccc(N4CCCCC4C)cc3)nc2c1 (stereo not shown) [Compound 4g, 2-((5-Methoxybenzothiazol-2-yl)thio)-N’-(4-(2-methylpiperidin-1-yl)benzylidene)acetohydrazide] | > 1000 µM | 100 µM | – | – | – | – | > 1000 µM | > 1000 µM | > 1000 µM | –
138 to 139 °C | CC1CCCCN1c1ccc(C=NNC(=O)CSc2nc3cc(Cl)ccc3s2)cc1 (stereo not shown) [Compound 4b, 2-((5-Chlorobenzothiazol-2-yl)thio)-N’-(4-(2-methylpiperidin-1-yl)benzylidene)acetohydrazide] | 1000 µM | 100 µM | – | – | – | – | 1000 µM | > 1000 µM | 100 µM | –
199 to 200 °C | COc1ccc(N2CCN(c3ccc(C=NNC(=O)CSc4nc5cc(OC)ccc5s4)cc3)CC2)cc1 [Compound 4j, 2-((5-Methoxybenzo[d]thiazol-2-yl)thio)-N’-(4-(4-(4-methoxyphenyl)piperazin-1-yl)benzylidene)acetohydrazide] | > 1000 µM | > 1000 µM | – | – | – | – | > 1000 µM | > 1000 µM | > 1000 µM | –
